In patent publication US11660293B2, “Substituted 2-azabicyclo[3.1.1]heptane and 2-azabicyclo[3.2.1]octane derivatives as orexin receptor antagonists” (Chronos Therapeutics Limited, priority 2017, dated 2023):

Key:
[1] = target: human Orexin type 1 receptors (Homo sapiens (Human), UniProt O43613); experiment: Intracellular calcium measurement (FLIPR), antagonism of Orexin-A at EC80 in CHO-hOX1 cells
[2] = target: human Orexin type 2 receptors (Homo sapiens (Human), UniProt O43614); experiment: Intracellular calcium measurement (FLIPR), antagonism of Orexin-A at EC80 in CHO-hOX2 cells
Sequence of human Orexin type 2 receptors (O43614 whole entry): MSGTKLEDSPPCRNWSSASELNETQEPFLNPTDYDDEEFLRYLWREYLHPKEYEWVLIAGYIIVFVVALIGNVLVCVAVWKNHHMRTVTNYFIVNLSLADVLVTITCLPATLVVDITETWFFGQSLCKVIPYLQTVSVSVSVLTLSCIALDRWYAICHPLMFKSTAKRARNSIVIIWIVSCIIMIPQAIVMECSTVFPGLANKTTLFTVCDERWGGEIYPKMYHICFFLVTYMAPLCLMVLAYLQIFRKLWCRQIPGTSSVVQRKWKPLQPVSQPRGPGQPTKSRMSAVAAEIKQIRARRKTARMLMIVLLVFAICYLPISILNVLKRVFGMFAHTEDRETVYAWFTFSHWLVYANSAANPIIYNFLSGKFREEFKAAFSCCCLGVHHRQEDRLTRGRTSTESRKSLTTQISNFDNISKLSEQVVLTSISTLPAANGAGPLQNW

Sequence of human Orexin type 1 receptors (O43613 whole entry): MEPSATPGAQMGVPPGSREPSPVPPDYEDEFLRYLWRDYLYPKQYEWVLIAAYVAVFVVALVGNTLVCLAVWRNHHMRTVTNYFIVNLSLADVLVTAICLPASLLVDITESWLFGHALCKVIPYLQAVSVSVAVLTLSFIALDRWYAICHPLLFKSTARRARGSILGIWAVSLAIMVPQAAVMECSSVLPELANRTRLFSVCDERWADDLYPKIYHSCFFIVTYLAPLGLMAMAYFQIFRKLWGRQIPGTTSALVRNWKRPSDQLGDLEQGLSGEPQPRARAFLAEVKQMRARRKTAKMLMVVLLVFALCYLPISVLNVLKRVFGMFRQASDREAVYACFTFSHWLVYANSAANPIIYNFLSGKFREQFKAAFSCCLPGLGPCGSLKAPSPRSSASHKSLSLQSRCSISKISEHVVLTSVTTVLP

Row | Structure (SMILES) | Ki [1] [nM] | Ki [2] [nM]
1 | Cc1ccc(-c2ncccn2)c(C(=O)N2C(COc3ccc(Cl)cn3)CC3CC2C3)c1 (racemic) [Example 32] | 72.4 | 513
2 | Cc1ccc(-c2ncccn2)c(C(=O)N2C(COc3ccc(C(F)(F)F)cn3)CC3CC2C3)c1 (racemic) [Example 35] | 74.1 | 631
3 | Cc1ccc(-c2ncccn2)c(C(=O)N2C(CCOc3ccc(F)cc3)CC3CC2C3)c1 (racemic) [Example 41] | 22.4 | 224
4 | Cc1nc(C(=O)N2C(COc3ccc(F)cc3)CC3CC2C3)c(-c2ccccc2)s1 (single isomer, unassigned) [Example 3, (3S or 3R) 3-[(4-fluorophenoxy)methyl]-2-(2-methyl-5-phenyl-1,3-thiazole-4-carbonyl)-2-azabicyclo[3.1.1]heptane] | 2.34 | 81.3
5 | Cc1ccc(-n2nccn2)c(C(=O)N2C(COc3ccc(F)cc3)CC3CC2C3)c1 (single isomer, unassigned) [Example 12, (3S or 3R) 3-(4-fluorophenoxymethyl)-2-{[5-methyl-2-(2H-1,2,3-triazol-2-yl)phenyl]carbonyl}-2-azabicyclo[3.1.1]heptane] | 27.5 | 1050
6 | Cc1ccc(-c2ncccn2)c(C(=O)N2C(COc3ccc(F)cn3)CC3CC2C3)n1 (single isomer, unassigned) [Example 22, (3S or 3R) 3-{[(5-fluoropyridin-2-yl)oxy]methyl}-2-{[6-methyl-3-(pyrimidin-2-yl)pyridin-2-yl]carbonyl}-2-azabicyclo[3.1.1]heptane] | 34.7 | 174
7 | Cc1ccc(-n2nccn2)c(C(=O)N2C(COc3ccc(F)cn3)CC3CC2C3)c1 (single isomer, unassigned) [Example 29, (3S or 3R) 3-{[(5-fluoropyridin-2-yl)oxy]methyl}-2-{[5-methyl-2-(2H-1,2,3-triazol-2-yl)phenyl]carbonyl}-2-azabicyclo[3.1.1]heptane] | 46.8 | 617

Next, values leading:

Row | Ki [1] [nM] | Ki [2] [nM] | Structure (SMILES)
8 | 5.13 | 93.3 | Cc1ccc(-c2nccs2)c(C(=O)N2C(COc3ccc(F)cc3)CC3CC2C3)n1 (single isomer, unassigned) [Example 6, (3S or 3R) 3-(4-fluorophenoxymethyl)-2-{[6-methyl-3-(1,3-thiazol-2-yl)pyridin-2-yl]carbonyl}-2-azabicyclo[3.1.1]heptane]
9 | 3.98 | 79.4 | Cc1ccc(-c2nccs2)c(C(=O)N2C(COc3ccc(F)cc3)CC3CC2C3)c1 (single isomer, unassigned) [Example 9, (3S or 3R) 3-(4-fluorophenoxymethyl)-2-{[5-methyl-2-(1,3-thiazol-2-yl)phenyl]carbonyl}-2-azabicyclo[3.1.1]heptane]
10 | 4.07 | 52.5 | Cc1ccc(-c2ncccn2)c(C(=O)N2C(COc3ccc(F)cc3)CC3CC2C3)n1 (single isomer, unassigned) [Example 15, (3S or 3R) 3-(4-fluorophenoxymethyl)-2-{[6-methyl-3-(pyrimidin-2-yl)pyridin-2-yl]carbonyl}-2-azabicyclo[3.1.1]heptane]
11 | 15.1 | 355 | Cc1ccc(-c2ncccn2)c(C(=O)N2C(COc3ccc(F)cc3)CC3CC2C3)c1 (single isomer, unassigned) [Example 17, (3S or 3R) 3-(4-fluorophenoxymethyl)-2-{[5-methyl-2-(pyrimidin-2-yl)phenyl]carbonyl}-2-azabicyclo[3.1.1]heptane]
12 | 18.2 | 182 | Cc1ccc(-c2nccs2)c(C(=O)N2C(COc3ccc(F)cn3)CC3CC2C3)c1 (single isomer, unassigned) [Example 26, (3S or 3R) 3-{[(5-fluoropyridin-2-yl)oxy]methyl}-2-{[5-methyl-2-(1,3-thiazol-2-yl)phenyl]carbonyl}-2-azabicyclo[3.1.1]heptane]
